Assay results published in the supplement of paper PMC8671470.

How the values were obtained:
Details in all cases: 72 h
ML-2 [1] = tested on: ML-2
In short: (§1)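 The IC50 was read from log-logistic dose–response fits. Fifteen myeloid leukaemia lines were exposed for 72 h at 37 °C with 5% CO2 to five tenfold doses from 1 to 10,000 nM in duplicate. ATP luminescence, normalised to vehicle and to a 10 µM positive control, was fitted with four parameters.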

KCL-22 [2] = tested on: KCL-22
In short: as §1

HEL [3] = tested on: HEL
In short: as §1

KG-1 [4] = tested on: KG-1
In short: as §1

MOLM-13 [5] = tested on: MOLM-13
In short: as §1

HL-60 [6] = tested on: HL-60
In short: as §1

LAMA-84 [7] = tested on: LAMA-84
In short: as §1

Mono-Mac-6 [8] = tested on: Mono-Mac-6
In short: as §1

NOMO-1 [9] = tested on: NOMO-1
In short: as §1

KU-812 [10] = tested on: KU-812
In short: as §1

THP-1 [11] = tested on: THP-1
In short: as §1

K-562 [12] = tested on: K-562
In short: as §1

SHI-1 [13] = tested on: SHI-1
In short: as §1

MV4-11 [14] = tested on: MV4-11
In short: as §1

BV-173 [15] = tested on: BV-173
In short: as §1

ML-2 [16] = test: cell viability (% survival relative to DMSO control, bortezomib = 0%); higher = less cytotoxic
In short: (§2)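 After 72 h at 37 °C with 5% CO2, cell viability in 384-well plates was measured by CellTiter-Glo luminescence. The plates held compounds pre-printed at 1, 10, 100, 1000 or 10000 nM in duplicate, and cells from 10 AML and 5 CML lines seeded at densities titrated to linear growth. Percent survival is the duplicate mean, normalised to vehicle as 100% and a 10 µM positive control as 0%.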

KCL-22 [17] = test: as above
In short: as §2

HEL [18] = test: as above
In short: as §2

KG-1 [19] = test: as above
In short: as §2

MOLM-13 [20] = test: as above
In short: as §2

HL-60 [21] = test: as above
In short: as §2

LAMA-84 [22] = test: as above
In short: as §2

Mono-Mac-6 [23] = test: as above
In short: as §2

NOMO-1 [24] = test: as above
In short: as §2

KU-812 [25] = test: as above
In short: as §2

THP-1 [26] = test: as above
In short: as §2

K-562 [27] = test: as above
In short: as §2

SHI-1 [28] = test: as above
In short: as §2

MV4-11 [29] = test: as above
In short: as §2

BV-173 [30] = test: as above
In short: as §2

CC(C)(F)C[C@H](N[C@@H](c1ccc(-c2ccc(S(C)(=O)=O)cc2)cc1)C(F)(F)F)C(=O)NC1(C#N)CC1 [Odanacatib]
Details	IC50 (cell viability) [µM]
BV-173 [15]	> 10
HEL [3]	> 10
HL-60 [6]	> 10
K-562 [12]	> 10
KCL-22 [2]	> 10
KG-1 [4]	> 10
KU-812 [10]	> 10
LAMA-84 [7]	> 10
ML-2 [1]	> 10
MOLM-13 [5]	> 10
MV4-11 [14]	> 10
Mono-Mac-6 [8]	> 10
NOMO-1 [9]	> 10
SHI-1 [13]	> 10
THP-1 [11]	> 10

cell viability [%]
Details	1 nM	10 nM	100 nM	1000 nM	10000 nM
BV-173 [30]	85.1	104	101	88.7	106
HEL [18]	104	107	99.9	92.7	107
HL-60 [21]	143	105	114	118	83.3
K-562 [27]	101	106	104	91.8	103
KCL-22 [17]	128	96.9	104	93.7	122
KG-1 [19]	103	99.6	95.6	107	103
KU-812 [25]	94.8	87.9	99.7	91.8	99.2
LAMA-84 [22]	104	103	106	89	102
ML-2 [16]	107	101	96.5	100	101
MOLM-13 [20]	128	99.5	108	96.4	117
MV4-11 [29]	109	105	111	97.9	112
Mono-Mac-6 [23]	96.4	101	101	99.2	85.5
NOMO-1 [24]	99.6	100	108	102	100
SHI-1 [28]	109	107	99.9	98.5	117
THP-1 [26]	99.2	99.6	100	94.9	95.7
